# Assay results as given in patent US10053431B2, “Tetrahydro-benzodiazepinones” (priority 2013, dated 2018).
# Structures can show the parent of a compound that is named as a salt. Where two headings read alike, the source gives them in different places.
# Tests used:
# BIR2 domain of XIAP = BIR2 domain of XIAP (Homo sapiens (Human), UniProt P98170, C202A/C213G); assay: TR-FRET assay for BIR2 (inhibition of binding of XIAP BIR2 domain to SMAC-derived Peptide A)
# BIR3 domain of XIAP = BIR3 domain of XIAP (Homo sapiens (Human), UniProt P98170); assay: TR-FRET assay for BIR3 (inhibition of binding of XIAP BIR3 domain to SMAC-derived Peptide A)
# [1] = 6x His-tagged BIR2 domain (aa 124-240 of XIAP) 10 nM, Peptide A 20 nM, TR-FRET, read-out: IC50 BIR2
# [2] = 6x His-tagged BIR3 domain (aa 241-356 of XIAP) 10 nM, Peptide A 20 nM, TR-FRET
# Chain of BIR2 domain of XIAP (P98170 124-240 with tags or gaps C202A/C213G limits assumed): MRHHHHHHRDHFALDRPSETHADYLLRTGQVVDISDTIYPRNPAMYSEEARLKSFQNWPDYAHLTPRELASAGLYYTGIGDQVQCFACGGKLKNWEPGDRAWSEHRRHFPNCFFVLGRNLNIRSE
# Chain of BIR3 domain of XIAP (P98170 241-356 with tags or gaps limits assumed): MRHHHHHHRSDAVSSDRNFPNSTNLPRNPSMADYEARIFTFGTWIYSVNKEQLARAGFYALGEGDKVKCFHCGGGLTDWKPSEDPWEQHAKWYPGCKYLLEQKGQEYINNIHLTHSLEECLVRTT
Compound,IC50 (BIR2 domain of XIAP; [1]),IC50 (BIR3 domain of XIAP; [2]),IC50 (BIR3 domain of XIAP),IC50 (BIR2 domain of XIAP; IC50 BIR2)
"CN[C@@H](C)C(=O)N[C@H]1CN(C(=O)c2ccc(N)cc2)c2cc(Cl)ccc2N(Cc2c(C)ccc3ccccc23)C1=O [Example 121, (S)-N-((S)-5-(4-aminobenzoyl)-7-chloro-1-((2-methylnaphthalen-1-yl)methyl)-2-oxo-2,3,4,5-tetrahydro-1H-benzo[b][1,4]diazepin-3-yl)-2-(methylamino)propanamide hydrochloride]",14.8 nM,46400 nM,–,–
"CNC(=O)N1C[C@H](NC(=O)[C@H](C)NC)C(=O)N(Cc2c(C)ccc3ccccc23)c2ccccc21 [Example 17, (S)-3-((S)-2-Methylamino-propionylamino)-5-(2-methyl-naphthalen-1-ylmethyl)-4-oxo-2,3,4,5-tetrahydro-benzo[b][1,4]diazepine-1-carboxylic acid methylamide hydrochloride]",1430 nM,–,> 54800 nM,–
"CN[C@@H](C)C(=O)N[C@H]1CN(C(=O)c2ccc3cn[nH]c3c2)c2ccccc2N(Cc2c(C)ccc3ccccc23)C1=O [Example 158, (2S)-N-[(3S)-1-(1H-indazole-6-carbonyl)-5-[(2-methylnaphthalen-1-yl)methyl]-4-oxo-2,3-dihydro-1,5-benzodiazepin-3-yl]-2-(methylamino)propanamide]",18.2 nM,> 54800 nM,–,–
"COc1ccc2ccccc2c1CN1C(=O)[C@@H](NC(=O)[C@H](C)N)CN(C(=O)c2ccc(N)cc2)c2ccccc21 [Example 65, (S)-2-amino-N—((S)-5-(4-aminobenzoyl)-1-((2-methoxynaphthalen-1-yl)methyl)-2-oxo-2,3,4,5-tetrahydro-1H-benzo[b][1,4]diazepin-3-yl)propanamide]",7 nM,23600 nM,–,–
"CN[C@@H](C)C(=O)N[C@H]1CN(C(=O)c2ccc(C#N)cc2)c2cc(Cl)ccc2N(Cc2c(OC(F)F)ccc3ccccc23)C1=O [Example 139, (S)-N-((S)-7-chloro-5-(4-cyanobenzoyl)-1-((2-(difluoromethoxy)naphthalen-1-yl)methyl)-2-oxo-2,3,4,5-tetrahydro-1H-benzo[b][1,4]diazepin-3-yl)-2-(methylamino)propanamide hydrochloride]",34.7 nM,36900 nM,–,–
"CN[C@@H](C)C(=O)N[C@H]1CN(C(=O)c2ccc(C(C)=O)cc2)c2cc(C#N)ccc2N(Cc2nn(-c3ccccc3C#N)c3ccccc23)C1=O [Example 162, (S)-N-((S)-5-(4-acetylbenzoyl)-7-cyano-1-((1-(2-cyanophenyl)-1H-indazol-3-yl)methyl)-2-oxo-2,3,4,5-tetrahydro-1H-benzo[b][1,4]diazepin-3-yl)-2-(methylamino)propanamide hydrochloride]",18.3 nM,> 54800 nM,–,–
"CN[C@@H](C)C(=O)N[C@H]1CN(C(=O)c2ccc(N)cc2)c2ccccc2N(Cc2c(OCCF)ccc3ccccc23)C1=O [Example 178, (2S)-N-[(3S)-1-(4-aminobenzoyl)-5-[[2-(2-fluoroethoxy)naphthalen-1-yl]methyl]-4-oxo-2,3-dihydro-1,5-benzodiazepin-3-yl]-2-(methylamino)propanamide;hydrochloride]",14.2 nM,16100 nM,–,–
CN[C@@H](C)C(=O)N[C@H]1CN(C(=O)c2ccc(F)cc2)c2ccccc2N(Cc2c(C)ccc3ccccc23)C1=O [Example 96i],30 nM,48000 nM,–,–
"CN[C@@H](C)C(=O)N[C@H]1CN(C(=O)CS(C)(=O)=O)c2cc(C(F)(F)F)ccc2N(Cc2c(C3CC3)cnc3ccccc23)C1=O [Example 187, (S)-N-((S)-1-((3-cyclopropylquinolin-4-yl)methyl)-5-(2-(methylsulfonyl)acetyl)-2-oxo-7-(trifluoromethyl)-2,3,4,5-tetrahydro-1H-benzo[b][1,4]diazepin-3-yl)-2-(methylamino)propanamide]",49.3 nM,34400 nM,–,–
"CN[C@@H](C)C(=O)N[C@H]1CN(C(=O)CN2CCN(C)CC2)c2ccccc2N(Cc2c(C)ccc3ccccc23)C1=O [Example 12, (S)-2-methylamino-N—{(S)-1(2-methyl-naphthalen-1-ylmethyl)-5-[2-(4-methyl-piperazin-1-yl)-acetyl]-2-oxo-2,3,4,5-tetrahydro-1H-benzo[b][1,4]diazepin-3-yl}-propionamide hydrochloride]",820 nM,> 54800 nM,–,–
"CN[C@@H](C)C(=O)N[C@H]1CN(C(=O)c2ccc(NC(C)=O)cc2)c2ccccc2N(Cc2c(OC)ccc3ccccc23)C1=O [Example 42, (S)—N—[(S)-5-(4-Acetylamino-benzoyl)-1-(2-methoxy-naphthalen-1-ylmethyl)-2-oxo-2,3,4,5-tetrahydro-1H-benzo[b][1,4]diazepin-3-yl]-2-methylamino-propionamide hydrochloride]",37 nM,> 54800 nM,–,–
"CN[C@@H](C)C(=O)N[C@H]1CN(C(=O)c2ccc(C#N)cc2)c2ccccc2N(Cc2c(OC(F)F)ccc3ccccc23)C1=O [Example 74, (S)—N—((S)-5-(4-Cyanobenzoyl)-1-((2-(difluoromethoxy)naphthalen-1-yl)methyl)-2-oxo-2,3,4,5-tetrahydro-1H-benzo[b][1,4]diazepin-3-yl)-2-(methylamino)propanamide]",49 nM,> 54800 nM,–,–
"CN[C@@H](C)C(=O)N[C@H]1CN(C(=O)Cc2ccccc2)c2ccccc2N(Cc2cccc3ccccc23)C1=O [Example 4, (S)-2-Methylamino-N—((S)-1-naphthalen-1-ylmethyl-2-oxo-5-phenylacetyl-2,3,4,5-tetrahydro-1H-benzo[b][1,4]diazepin-3-yl)-propionamide hydrochloride]",409 nM,> 54000 nM,–,–
CC(=O)c1ccc(C(=O)N2C[C@H](NC(=O)[C@H](C)N)C(=O)N(Cc3c(OCC(F)(F)F)ccc4ccccc34)c3ccccc32)cc1 [Example 69h],20 nM,30300 nM,–,–
"CN[C@@H](C)C(=O)N[C@H]1CN(C(=O)CCCC(C)=O)c2ccccc2N(Cc2c(OC)ccc3cc(C(=O)O)ccc23)C1=O [Example 47, 6-Methoxy-5-[(S)-3 ((S)-2-methylamino-propionylamino)-2-oxo-5-(5-oxo-hexanoyl)-2,3,4,5-tetrahydro-benzo[b][1,4]diazepin-1-ylmethyl]-naphthalene-2-carboxylic acid hydrochloride]",20 nM,44600 nM,–,–
"CN[C@@H](C)C(=O)NC1C(=O)N(Cc2c(C)ccc3ccccc23)c2ccccc2N(c2ccccc2)C1=O (stereo partly drawn) [Example 116, (2S)-2-(methylamino)-N-(1-((2-methylnaphthalen-1-yl)methyl)-2,4-dioxo-5-phenyl-2,3,4,5-tetrahydro-1H-benzo[b][1,4]diazepin-3-yl)propanamide]",–,> 54800 nM,–,39.8 nM
"CN[C@@H](C)C(=O)N[C@H]1CN(C(=O)CS(C)(=O)=O)c2cc(C#N)ccc2N(Cc2nn(-c3ccccc3C#N)c3ccccc23)C1=O [Example 161, (2S)-N-[(3S)-7-cyano-1-[[1-(2-cyanophenyl)indazol-3-yl]methyl]-5-(2-methylsulfonylacetyl)-2-oxo-3,4-dihydro-1,5-benzodiazepin-3-yl]-2-(methylamino)propanamide;2,2,2-trifluoroacetic acid]",53.9 nM,> 54800 nM,–,–
"CN[C@@H](C)C(=O)N[C@H]1CN(C(=O)c2ccc(C#N)cc2)c2cc(Cl)ccc2N(Cc2c(OCC(F)(F)F)ccc3cc(Br)ccc23)C1=O [Example 135, (S)-N-((S)-1-((6-bromo-2-(2,2,2-trifluoroethoxy)naphthalen-1-yl)methyl)-7-chloro-5-(4-cyanobenzoyl)-2-oxo-2,3,4,5-tetrahydro-1H-benzo[b][1,4]diazepin-3-yl)-2-(methylamino)propanamide hydrochloride]",32 nM,36200 nM,–,–
"CN[C@@H](C)C(=O)N[C@@H]1C(=O)N(CC(=O)Nc2c(F)cccc2F)c2ccccc2N(C(C)=O)[C@H]1C [Example 190, (S)-N-((2S,3S)-1-acetyl-5-(2-(2,6-difluorophenylamino)-2-oxoethyl)-2-methyl-4-oxo-2,3,4,5-tetrahydro-1H-benzo[b][1,4]diazepin-3-yl)-2-(methylamino)propanamide hydrochloride]",85.3 nM,> 54800 nM,–,–
"CN[C@@H](C)C(=O)N[C@H]1CN(C(C)=O)c2cc(C(F)(F)F)ccc2N(Cc2c(C3CC3)ccc3c(C#N)cccc23)C1=O [Example 189, (S)-N-((S)-5-acetyl-1-((5-cyano-2-cyclopropylnaphthalen-1-yl)methyl)-2-oxo-7-(trifluoromethyl)-2,3,4,5-tetrahydro-1H-benzo[b][1,4]diazepin-3-yl)-2-(methylamino)propanamide]",30.4 nM,29300 nM,–,–
CN[C@@H](C)C(=O)N[C@H]1CN(S(=O)(=O)c2ccc(OC)cc2)c2ccccc2N(Cc2c(C)ccc3ccccc23)C1=O [Example 98f],177 nM,> 50000 nM,–,–
"CN[C@@H](C)C(=O)N[C@H]1CN(C(=O)c2ccc(N)cc2)c2ccccc2N(Cc2c(C)ccc3ccccc23)C1=O [Example 67, (S)—N—((S)-5-(4-aminobenzoyl)-1-((2-methylnaphthalen-1-yl)methyl)-2-oxo-2,3,4,5-tetrahydro-1H-benzo[b][1,4]diazepin-3-yl)-2-(methylamino)propanamide hydrochloride]",22 nM,> 54800 nM,–,–
"CN[C@@H](C)C(=O)N[C@H]1CN(C(=O)c2ccc(C#N)cc2)c2cc(C#N)ccc2N(Cc2c(OC)ccc3c(Br)cccc23)C1=O [Example 143, (S)-N-((S)-1-((5-bromo-2-methoxynaphthalen-1-yl)methyl)-7-cyano-5-(4-cyanobenzoyl)-2-oxo-2,3,4,5-tetrahydro-1H-benzo[b][1,4]diazepin-3-yl)-2-(methylamino)propanamide hydrochloride]",5.11 nM,16300 nM,–,–
